Reference: PMC12033364, “Emergence of transferable daptomycin resistance in Gram-positive bacteria” (npj Antimicrobials and Resistance, 2025)

Legend:
S. aureus RN4220 = assay: DAP MIC, micro-broth dilution, plasmid-carrying strains; assay type: cell-based, Staphylococcus aureus; conditions: MH + 50 µg/mL CaCl2, 18 h 37 °C, three biological replicates
Method: (§1) Bacteria were grown in Muller-Hinton broth (MH) (Carl Roth GmbH + Co. KG, Karlsruhe, Germany) and over-night cultures supplemented with antibiotics when required. […] For transcription profiling experiments, bacteria were exposed to 128 µg/mL DAP for 30 min. All strains, except bacilli (30 °C), were incubated at 37 °C.
(§2) Recombinant plasmids (Table S1) were generated by in vitro E. coli cloning method, employing shuttle vector pCG248 as backbone and E. coli DC10B as host. After recovery from E. coli, recombinant plasmids were transformed into S. aureus or B. subtilis via electroporation.
(§3) The cultures were adjusted to 5 × 10^5 CFU/mL and transferred to a 96-well flat bottom microtiter plate (Greiner Bio-One GmbH, Frickenhausen, Germany). 100 ng/mL anhydrotetracycline (ATc) (Carl Roth GmbH + Co. KG, Karlsruhe, Germany) was added if required; ATc-containing plates were stored in the dark. Plates were incubated for 18 h at 37 °C (24 h at 30 °C for bacilli) under static conditions. Afterwards, the OD595 was measured to determine the MIC according to EUCAST guidelines.

[1] = tested on: Enterococcus faecalis CVM N59689F; conditions: E. faecalis CVM N59689F, drc-carrying isolate from market swine; cited from earlier work
From the text: Table 1 Detection of the drc locus (drcRS/drcAB) in staphylococci and enterococci | column: DAP MIC (µg/mL) || Another bottleneck in clinical AMR development is that AMR genes from environmental microorganisms must gain access to pathogenic species. This requires donors and recipients to come into close physical contact, which is often challenging as pathogenic and environmental species rarely share the same ecological niche. In this respect, M. sciuri may play a crucial role in drc acquisition and spread. Due to its dual lifestyle as a soil bacterium and animal commensal, M. sciuri comes into contact with both the soil resistome and commensal bacteria associated with warm-blooded hosts, making M. sciu ...

B. subtilis 168 = assay: DAP MIC, micro-broth dilution, plasmid-carrying strains; assay type: cell-based, Bacillus subtilis
Method: as §1, §2, §3

S. aureus USA300 LAC* = assay: DAP MIC, micro-broth dilution, plasmid-carrying MRSA strains; assay type: cell-based, Staphylococcus aureus; conditions: MH + 50 µg/mL CaCl2, 18 h 37 °C, three biological replicates
Method: as §1, §2, §3

[2] = tested on: drcA and drcB (TS92_00079, TS92_00080) in M. sciuri TS92; assay: Transcription profiling (RNA-Seq) upon DAP exposure; assay type: cell-based, Mammaliicoccus sciuri; conditions: M. sciuri TS92 exposed to 128 µg/mL DAP for 30 min, three biological replicates, DESeq2
Method: An overnight culture of M. sciuri TS92 was diluted in fresh MH to an optical density at 600 nm (OD600) of 0.05 and grown to OD600 0.5. The culture was split into 10 mL each aliquots and incubated in the absence and presence of 128 µg/mL DAP for 30 min. Subsequently, total RNA extraction was performed as described previously.
RNA was isolated from three biological replicates. RNA quality was checked using a 2100 Bioanalyzer with the RNA 6000 Nano Kit (Agilent Technologies, Santa Clara, USA). cDNA libraries suitable for sequencing were prepared from 1000 ng of total RNA after DNase I treatment (Thermo Fisher, Darmstadt, Germany). […] The number of PCR cycles was determined at 14 by qPCR and the elongation time was set to 15 s. Libraries were quantified by Qubit^TM dsDNA HS Assay Kit and Qubit^TM 3.0 Fluorometer (ThermoFisher), and quality was checked using 2100 Bioanalyzer with the High Sensitivity DNA Kit (Agilent Technologies) before pooling. Sequencing of pooled libraries, spiked with 5% PhiX control library, was performed at ~11–15 million reads per sample in single-end mode with 75 nucleotide read length on the NextSeq 500 platform (Illumina, San Diego, CA, USA). […] Afterwards, the pipeline READemption v0.4.5[59] was applied to align all reads longer than 11 nt (-l 12) to our de novo assembled M. sciuri TS92 genome using segemehl v0.2.0[60] with an accuracy cut-off of 95% (-a 95). […]

CCCCCCCCCC(=O)N[C@@H](Cc1c[nH]c2ccccc12)C(=O)N[C@H](CC(N)=O)C(=O)N[C@@H](CC(=O)O)C(=O)N[C@@H]1C(=O)NCC(=O)N[C@@H](CCCN)C(=O)N[C@@H](CC(=O)O)C(=O)N[C@H](C)C(=O)N[C@@H](CC(=O)O)C(=O)NCC(=O)N[C@H](CO)C(=O)N[C@@H]([C@H](C)CC(=O)O)C(=O)N[C@@H](CC(=O)c2ccccc2N)C(=O)O[C@@H]1C [DAP, Daptomycin]
DAP MIC (S. aureus RN4220; S. aureus RN4220_Pxyl/tet-drcAB + ATc (100 ng/mL, induced)): 64 µg/mL | DAP MIC (S. aureus RN4220; S. aureus RN4220_drcRS/drcAB (entire drc locus, native drcRS control, plasmid)): 64 µg/mL | DAP MIC (S. aureus RN4220; S. aureus RN4220_empty vector control): 1 µg/mL | DAP MIC [1]: >16 µg/mL | DAP MIC (B. subtilis 168; B. subtilis 168_Pxyl/tet-drcAB + ATc (induced), MH + 50 µg/mL CaCl2, 24 h 30 °C, three biological replicates): 16 µg/mL | DAP MIC (B. subtilis 168; B. subtilis 168_drcRS/drcAB (entire drc locus on plasmid), MH + 50 µg/mL CaCl2, 24 h 30 °C, three biological replicates): > 256 µg/mL | DAP MIC (B. subtilis 168; B. subtilis 168 as worded in the text, before induction of drcAB expression): 2 µg/mL | DAP MIC (S. aureus USA300 LAC*; S. aureus USA300 LAC*_Pxyl/tet-drcAB + ATc (induced)): 32 µg/mL | DAP MIC (S. aureus USA300 LAC*; S. aureus USA300 LAC*_drcRS/drcAB (entire drc locus on plasmid)): 128 µg/mL | DAP MIC (S. aureus USA300 LAC*; S. aureus USA300 LAC*_empty vector control): 1 µg/mL | up-regulation of drcA and drcB transcription upon DAP exposure versus untreated control [2]: 128 fold change
